Test results published in patent publication US10758541B2, “Formulations of milciclib and therapeutic combinations of the same for use in the treatment of cancer” (Tiziana Life Sciences PLC, priority 2017, dated 2020).

Experiments:
[1] = system: pAKT (Ser473), AKT, c-Myc, Cyclin D1, PTEN; assay: Western blot analysis of tumor tissues; assay type: in vivo, mice; settings: liver samples, vs vehicle treated group
Protocol: The tumor tissues from a thymic nude mice were weighed and homogenized with RIPA lysis buffer (Sigma-Aldrich, St. Louis, Mo.) and protease inhibitor cocktail (Sigma-Aldrich, St. Louis, Mo.). Tumor lysates were cleared by centrifugation and the protein concentration was determined using Bradford reagent (Sigma-Aldrich, St. Louis, Mo.). Equal amounts of protein (30 μg) were resolved on precast polyacrylamide gels (Thermo Fisher Scientific, Rockford, Ill.) and transferred to nitrocellulose membrane, 0.2 μm pore size (Thermo Fisher Scientific, Rockford, Ill.). The blots were blocked with 5% (w/v) nonfat dry milk for 2 h at room temperature and then probed with primary antibody overnight at 4° C. The primary antibodies were directed against the following proteins: human PTEN, human AKT and phospho-AKT (Ser473), human c-Myc, human CyclinD1 and human β-actin (Cell Signaling Technology, Beverly, Mass.). After three washes, incubation was followed by the reaction with horseradish peroxidase-conjugated secondary antibody for 1 h at room temperature. The immunoreactive bands were visualized using Image Studio 4.0-Western Analysis Ribbon (Li-Cor, Lincoln, Nebr.).

alpha-fetoprotein (AFP) = assay: Serum AFP in orthotopic HCC mouse model; assay type: in vivo, mice; settings: milciclib 30 mg/kg, sorafenib 20 mg/kg, oral, vs vehicle
Protocol: (§1) MHCC97H cells were seeded at a density of 500,000 cells/2 mL/well on a 6 well culture plate and incubated overnight at 37° C. in a humidified CO2 incubator. Cells were then treated with 1.3 μM milciclib or vehicle in DMEM/F12+2% FBS for 72 hours. Subsequently, cells were lysed in RIPA buffer, the supernatant was collected and used to perform ELISA assay as per the manufacturer's instructions. In orthotopic HCC mouse model, levels of serum marker alpha-fetoprotein (AFP) were determined on day 0, 6, 12, 18, 24, 30, 36, 42 and 48 using High Range AFP kit as per manufacturer's instructions.
Mouse experiments were performed in accordance with the guidelines approved by the Institutional Animal Care and use committee of Washington Biotechnology Inc (Baltimore, Md.) where the studies were conducted. (FIG. 66) Test agents were dissolved in chremophor/ethanol (1:1) to make a 5× stock solution and diluted in water when used. MHCC97H human liver cells (5×106) in PBS were mixed with 20% Matrigel and then inoculated orthotopically into the right flank of female Balb/c nude mice. Seven days after cell inoculation, the mice were randomly allocated to either the treatment group (n=12) or the control group (n=12) based on the levels of AFP. The daily animal inspection was conducted for general appearance and tumor growth. […]

MHCC97L cells = assay: EMT transwell invasion assay; assay type: cell-based, human; settings: agent alone, 10 days, P<0.05
Protocol: (§2) EMT (Epithelial to Mesenchymal Transition) induction employing kit from R&D systems (Cat # CCM017)
(§3) For transwell invasion assay HCC cells were seeded in the top chamber in 6 well transwell plates (Sigma-Aldrich, St. Louis, Mo.) at a density of 100,000 cells/500 μL/well in standard culture media containing 100× StemXVivo® EMT Inducing Media Supplement (R&D systems, Minneapolis, Minn.) and was incubated overnight at 37° C. in humidified CO2 incubator. Next day, EMT inducing media with or without the test articles was added and incubation was continued for 10 days with media changes every 3 days. On the 10th day, the number of cells migrated to the lower chamber was determined using Bio-Rad (Hercules, Calif.) automatic cell counter. Values obtained were expressed as a percentage of invasion and the cell counts of control cells were considered 100%.
(§4) The invasive potential of cancer cells is dependent on losing epithelial characteristics and acquiring a migratory mesenchymal property referred to as Epithelial to Mesenchymal Transition (EMT).

MHCC97H cells = assay: EMT transwell invasion assay; assay type: cell-based, human; settings: agent alone, 10 days, P<0.05
Protocol: as §2, §3, §4

[2] = phase I, cited from earlier work
Alphafetoprotein (AFP) = assay: AFP ELISA assay in MHCC97H cells; assay type: cell-based, human; settings: 1.3 μM, 72 hours, vs vehicle control
Protocol: as §1

HepG2.2.15 cells = assay: IC50 values by cell proliferation assay (WST-1); assay type: cell-based; settings: Homo sapiens, HepG2.2.15; individual inhibitor, 72 hours, WST-1; read-out: HepG2.2.15 IC50
Source text: See Shailubhai, K et al. “Atiprimod is an inhibitor of cancer cell proliferation and angiogenesis.” J Exp Ther Oncol. 2004; 4: 267-279; and Choudhari et al. “Deactivation of Akt and STAT3 signaling promotes apoptosis, inhibits proliferation, and enhances the sensitivity of hepatocellular carcinoma cells to an anticancer agent, atiprimod” Molecular Cancer Therapeutics. 2007; 6: 112-121. References are incorporated herein in their entireties.
HepG2.2.15 cells are derived from the human hepatoblastoma cell line HepG2.
Cells (MHCC97H, MHCC97L, and HepG2.2.15) were cultured for 24 hours in 2% FBS and then were trypsinized, resuspended in 2% FBS and seeded in a rat collagen coated 96-well plate at a density of 10,000 cells/100 μl/well, a day before the experiment and cultured at 37° C. in 5% CO2. The cells were treated the next day with milciclib, sorafenib, regorafenib, sunitinib, and lenvatinib, individually or in combination in DMEM/F12+2% FBS+for 72 hours prior to the addition of WST-1 reagent. About 100 μL media was added to control well. After cells had been cultured for 72 hours with different drug concentrations, cells were washed 3 times with sterile 1× Phosphate buffered saline (PBS). To determine cell proliferation by the colorimetric test, 10 μL of WST-1 reagent (Sigma Aldrich, St Louis, Mo.) was added in 100 μL cell culture media and incubated for 2 hours in 5% CO2 at 37° C. At the end of incubation period, the plate was placed on a plate shaker for 1 minute and was monitored using a spectrophotometer at an optical density of 450 nm with a reference wavelength of 600 nm using Tecan F200 and iControl software. IC50 values were determined using GraphPad Prism (GraphPad Software, La Jolla, Calif.). Each experiment was performed in duplicate and repeated 2 times.

Structure (SMILES): CNC(=O)c1nn(C)c2c1C(C)(C)Cc1cnc(Nc3ccc(N4CCN(C)CC4)cc3)nc1-2 [MILCICLIB, N,1,4,4-tetramethyl-8-((4-(4-methylpiperazin-1-yl)phenyl)amino)-4,5-dihydro-1H-pyrazolo[4,3-h]quinazoline-3-carboxamide]
- PTEN expression [1]: upregulation
- pAKT, c-Myc and cyclin D1 expression [1]: reduction
- serum AFP levels (alpha-fetoprotein (AFP)): Significantly lower
- cell migration (EMT assay) (MHCC97L cells): statistically significant inhibition
- cell migration (EMT assay) (MHCC97H cells): statistically significant inhibition
- tolerability ([2]; oral treatment, patients with advanced solid malignancies): well-tolerated
- RP2D ([2]; oral): 150 mg/day
- major toxicity profile ([2]; reversible upon treatment suspension): tremors and gastrointestinal toxicity
- AFP levels (Alphafetoprotein (AFP)): Appreciably lower
- IC50 (HepG2.2.15 cells): 1160 nM
